{
  "source": "PubChem BioAssay AID2060886",
  "about": "(Molecular Pharmacology Branch, DTP, NCI, 2025);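 note: spheroids exposed to the agents for seven days before the readout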",
  "system": "653999-131-R-J2-PDC complex spheroids, growth inhibition",
  "assay": "Anticancer human tumor 653999-131-R-J2-PDC patient-derived lung adenocarcinoma cell line growth inhibition [RAS]",
  "details": "for IC50: curve of first compound; for viability, T/C: stronger effect = lower value",
  "procedure,_shortened": "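Multi-cell-type spheroids: tumor cells plus HUVEC endothelial cells and mesenchymal stem cells. RAS-pathway inhibitors were combined with targeted agents, each dosed in half-log steps down from clinical Cmax, or from 10 microM when Cmax was unknown.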",
  "data": [
    {"smiles": "CC(Nc1ccc2c(c1)OCCn1cc(N3C(=O)OCC3C(F)F)nc1-2)C(N)=O", "note": "(configuration not stated) + C=CC(=O)N1CCN(c2nc(OCC3CCCN3C)nc3c(F)c(-c4nc(N)cc(C)c4C(F)(F)F)c(Cl)cc23)C(C)C1", "values": [
      {"measurement": "IC50", "setting": "second compound 0.00316 µM", "result": 645, "unit": "nM"},
      {"measurement": "IC50", "setting": "second compound 0.01 µM", "result": 717, "unit": "nM"},
      {"measurement": "IC50", "setting": "second compound 0.0316 µM", "result": 636, "unit": "nM"},
      {"measurement": "IC50", "setting": "second compound 0.1 µM", "result": 1160, "unit": "nM"},
      {"measurement": "IC50", "setting": "second compound 0.316 µM", "result": 536, "unit": "nM"},
      {"measurement": "IC50", "setting": "second compound 1 µM", "result": 571, "unit": "nM"},
      {"measurement": "viability, T/C", "setting": "second compound 0.00316 µM, first compound 0.0316 µM", "result": 111, "unit": "%"},
      {"measurement": "viability, T/C", "setting": "second compound 0.00316 µM, first compound 0.1 µM", "result": 75.6, "unit": "%"},
      {"measurement": "viability, T/C", "setting": "second compound 0.00316 µM, first compound 0.316 µM", "result": 55.9, "unit": "%"},
      {"measurement": "viability, T/C", "setting": "second compound 0.00316 µM, first compound 1 µM", "result": 51.5, "unit": "%"},
      {"measurement": "viability, T/C", "setting": "second compound 0.00316 µM, first compound 3.16 µM", "result": 36.5, "unit": "%"},
      {"measurement": "viability, T/C", "setting": "second compound 0.00316 µM, first compound 10 µM", "result": 25.3, "unit": "%"},
      {"measurement": "viability, T/C", "setting": "second compound 0.01 µM, first compound 0.0316 µM", "result": 104, "unit": "%"},
      {"measurement": "viability, T/C", "setting": "second compound 0.01 µM, first compound 0.1 µM", "result": 83.6, "unit": "%"},
      {"measurement": "viability, T/C", "setting": "second compound 0.01 µM, first compound 0.316 µM", "result": 61.1, "unit": "%"},
      {"measurement": "viability, T/C", "setting": "second compound 0.01 µM, first compound 1 µM", "result": 42.2, "unit": "%"},
      {"measurement": "viability, T/C", "setting": "second compound 0.01 µM, first compound 3.16 µM", "result": 40.4, "unit": "%"},
      {"measurement": "viability, T/C", "setting": "second compound 0.01 µM, first compound 10 µM", "result": 26.5, "unit": "%"},
      {"measurement": "viability, T/C", "setting": "second compound 0.0316 µM, first compound 0.0316 µM", "result": 96.5, "unit": "%"},
      {"measurement": "viability, T/C", "setting": "second compound 0.0316 µM, first compound 0.1 µM", "result": 70.1, "unit": "%"},
      {"measurement": "viability, T/C", "setting": "second compound 0.0316 µM, first compound 0.316 µM", "result": 58.9, "unit": "%"},
      {"measurement": "viability, T/C", "setting": "second compound 0.0316 µM, first compound 1 µM", "result": 44.9, "unit": "%"},
      {"measurement": "viability, T/C", "setting": "second compound 0.0316 µM, first compound 3.16 µM", "result": 38.5, "unit": "%"},
      {"measurement": "viability, T/C", "setting": "second compound 0.0316 µM, first compound 10 µM", "result": 26, "unit": "%"},
      {"measurement": "viability, T/C", "setting": "second compound 0.1 µM, first compound 0.0316 µM", "result": 85.6, "unit": "%"},
      {"measurement": "viability, T/C", "setting": "second compound 0.1 µM, first compound 0.1 µM", "result": 66.3, "unit": "%"},
      {"measurement": "viability, T/C", "setting": "second compound 0.1 µM, first compound 0.316 µM", "result": 68.8, "unit": "%"},
      {"measurement": "viability, T/C", "setting": "second compound 0.1 µM, first compound 1 µM", "result": 50.7, "unit": "%"},
      {"measurement": "viability, T/C", "setting": "second compound 0.1 µM, first compound 3.16 µM", "result": 40, "unit": "%"},
      {"measurement": "viability, T/C", "setting": "second compound 0.1 µM, first compound 10 µM", "result": 21.6, "unit": "%"},
      {"measurement": "viability, T/C", "setting": "second compound 0.316 µM, first compound 0.0316 µM", "result": 85.9, "unit": "%"},
      {"measurement": "viability, T/C", "setting": "second compound 0.316 µM, first compound 0.1 µM", "result": 78.1, "unit": "%"},
      {"measurement": "viability, T/C", "setting": "second compound 0.316 µM, first compound 0.316 µM", "result": 55.1, "unit": "%"},
      {"measurement": "viability, T/C", "setting": "second compound 0.316 µM, first compound 1 µM", "result": 40.9, "unit": "%"},
      {"measurement": "viability, T/C", "setting": "second compound 0.316 µM, first compound 3.16 µM", "result": 37.5, "unit": "%"},
      {"measurement": "viability, T/C", "setting": "second compound 0.316 µM, first compound 10 µM", "result": 26.9, "unit": "%"},
      {"measurement": "viability, T/C", "setting": "second compound 1 µM, first compound 0.0316 µM", "result": 87.9, "unit": "%"},
      {"measurement": "viability, T/C", "setting": "second compound 1 µM, first compound 0.1 µM", "result": 67.6, "unit": "%"},
      {"measurement": "viability, T/C", "setting": "second compound 1 µM, first compound 0.316 µM", "result": 60.5, "unit": "%"},
      {"measurement": "viability, T/C", "setting": "second compound 1 µM, first compound 1 µM", "result": 37.9, "unit": "%"},
      {"measurement": "viability, T/C", "setting": "second compound 1 µM, first compound 3.16 µM", "result": 41.3, "unit": "%"},
      {"measurement": "viability, T/C", "setting": "second compound 1 µM, first compound 10 µM", "result": 28.7, "unit": "%"}
    ]}
  ]
}
